Test results reported in patent US12624018B1, “Inhibitors of RIPK2 and medical uses thereof” (Odyssey Therapeutics, Inc., priority 2022, dated 2026).

Columns and labels:
[1] = molecular target: T1, RIPK2 enzyme (Homo sapiens, UniProt O43353); test: RIPK2 inhibition (ADP-Glo Kinase Assay); format: biochemical; settings: RIPK2 5 nM, ATP 150 μM, MBP substrate, read-out: RIPK2 IC50
T1 construct: purchased Carna 09-128
Procedure, shortened: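 Human RIPK2 (5 nM) preincubated with compound 30 min at room temperature in 50 mM HEPES pH 7.5, 10 mM MgCl2, 2 mM DTT, 1 mM EGTA, 0.01% Brij-35, 0.05% BSA; native swine MBP as substrate. ADP formed quantified by ADP-Glo luminescence; percent inhibition relative to DMSO and no-enzyme controls.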

[2] = tested on: human NOD2 signaling; test: Inhibition of human NOD2 signaling in HEK-Blue-hNOD2 cells (L18-MDP stimulated, SEAP reporter); format: cell-based; settings: Homo sapiens, HEK-Blue hNOD2, HEK-Blue-hNOD2 cells, NOD2 ligand stimulation, SEAP reporter; read-out: hNOD2 IC50
Procedure, shortened: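 HEK-Blue-hNOD2 cells (HEK293 with NOD2 and SEAP reporter), 12500/well, treated with 10-point 3-fold compound dilutions plus L18-MDP 0.5 ng/mL final, 24 h at 37 °C. Supernatant SEAP read with QUANTI-Blue after 3 h at 620 nm; IC50 by 4-parameter fit vs DMSO±L18-MDP controls.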

[3] = molecular target: T2, RIPK2 and XIAP protein-protein interaction (Homo sapiens, UniProt O43353); test: Inhibition of the interaction of RIPK2 with XIAP (NanoBRET in HEK293T cells); format: cell-based; settings: RIPK2 HaloTag / XIAP NanoLuc, read-out: NanoBRET Scaffolding IC50
T2 construct: the N-terminus of full-length RIPK2 was appended with the HaloTag fusion protein; expressed in transfected cells; host or cells: HEK293T
Excerpt: An assay measuring the RIPK2 and XIAP protein-protein interaction was generated using the NanoBRET protein:protein interaction system (Promega) which measures the energy transfer from a bioluminescent protein donor (NanoLuc fusion protein) to a fluorescent protein acceptor (Halotag fusion protein). In this assay, the C-terminus of full-length XIAP was appended with the NanoLuc fusion protein and the N-terminus of full-length RIPK2 was appended with the HaloTag fusion protein. Assay medium consisted of Opti-MEM I reduced serum medium with no phenol red plus 4% heat inactivated FBS. Transfection reagents were combined in a microfuge tube as follows: 400 μL of assay medium, 8 μL of vector with N-terminus of RIPK2 HaloTag fusion protein (vector concentration at 1 μg/μL), 0.8 μL of vector with C-terminus of XIAP NanoLuc fusion protein (vector concentration at 1 μg/μL), and 24 μL of FuGENE HD transfection reagent (Promega, catalogue number E2312). […] Test compounds were prepared into a 10 mM DMSO solution and were serially diluted into 10 points using a 3-fold dilution in a 384 well plate using a TECAN EV0200.
Method: HEK293T cells were transfected with the RIPK2 HaloTag fusion and XIAP NanoLuc fusion vectors in suspension. […] Transfection reagents were pre-mixed and incubated at room temperature for 30 minutes. Then the total transfection reagent mixture was added dropwise to the 16 mL cell suspension and mixed gently. 40 μL of the cells and transfection reagent suspension was plated into a white 384 well plate and incubated at 37° C. in a CO2 incubator for 24 hours. […] Lastly, a 3× solution of NanoBRET Nano-Glo substrate in Opti-MEM I reduced serum media (no phenol red; 20 μL total volume) was added to each well and incubated for 2-3 minutes at room temperature. The plate was then measured using 460 nm filter (donor emission) and 618 nm filter (acceptor emission) in an EnVision multimode plate reader (PerkinElmer). The NanoBRET ratio values were determined by dividing the acceptor emission value by the donor emission value for each sample.

T1 sequence (O43353 1-299 limits assumed): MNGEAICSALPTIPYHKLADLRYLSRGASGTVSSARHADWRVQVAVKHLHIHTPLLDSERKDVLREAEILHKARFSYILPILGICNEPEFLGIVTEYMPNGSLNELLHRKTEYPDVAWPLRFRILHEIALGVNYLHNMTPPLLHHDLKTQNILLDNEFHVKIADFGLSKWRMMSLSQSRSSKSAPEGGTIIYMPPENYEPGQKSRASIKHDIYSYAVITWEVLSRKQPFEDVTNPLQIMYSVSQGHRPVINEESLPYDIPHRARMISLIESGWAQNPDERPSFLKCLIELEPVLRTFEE
T2 sequence (O43353 whole entry, the tested form may be a part): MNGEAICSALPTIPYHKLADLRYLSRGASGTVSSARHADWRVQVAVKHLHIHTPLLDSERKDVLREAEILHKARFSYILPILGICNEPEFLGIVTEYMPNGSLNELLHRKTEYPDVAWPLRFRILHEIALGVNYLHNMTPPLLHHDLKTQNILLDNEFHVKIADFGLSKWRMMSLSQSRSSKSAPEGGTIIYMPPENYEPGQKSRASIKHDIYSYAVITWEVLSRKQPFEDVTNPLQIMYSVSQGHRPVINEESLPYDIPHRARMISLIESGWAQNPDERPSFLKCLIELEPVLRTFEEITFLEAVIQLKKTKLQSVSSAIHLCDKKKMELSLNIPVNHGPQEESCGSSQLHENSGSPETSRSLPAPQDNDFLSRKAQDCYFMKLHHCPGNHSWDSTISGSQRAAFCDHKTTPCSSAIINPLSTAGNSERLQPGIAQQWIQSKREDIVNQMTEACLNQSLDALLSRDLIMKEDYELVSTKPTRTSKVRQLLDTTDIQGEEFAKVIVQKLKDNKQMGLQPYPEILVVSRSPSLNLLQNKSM

Row | SMILES | IC50 [1] | IC50 [2] | IC50 [3]
1 | Cc1cc(CC(=O)Nc2cnn(C(C)(C)C)c2)c(F)cc1Oc1ccnc2ccc(-c3nccnc3C)cc12 [Compound 476, N-(1-(tert-butyl)-1H-pyrazol-4-yl)-2-(2-fluoro-5-methyl-4-((6-(3-methylpyrazin-2-yl)quinolin-4-yl)oxy)phenyl)acetamide] | < 2.5 nM | 5.9 nM | 52.1 nM
2 | Cc1cc(CC(=O)Nc2cnn(C(C)(C)C)c2)c(F)cc1Oc1ccnc2ccc(-c3ncncc3C)cc12 [Compound 477, N-(1-(tert-butyl)-1H-pyrazol-4-yl)-2-(2-fluoro-5-methyl-4-((6-(5-methylpyrimidin-4-yl)quinolin-4-yl)oxy)phenyl)acetamide] | < 2.5 nM | 5.4 nM | 38.7 nM
3 | Cc1cc(CC(=O)Nc2cnn(C(C)(C)C)c2)c(F)cc1Oc1ccnc2ccc(-c3c[nH]nc3C)cc12 [Compound 479, N-(1-(tert-butyl)-1H-pyrazol-4-yl)-2-(2-fluoro-5-methyl-4-((6-(3-methyl-1H-pyrazol-4-yl)quinolin-4-yl)oxy)phenyl)acetamide] | < 2.5 nM | 1.4 nM | 5.8 nM
4 | CNCc1nnc(-c2ccc3nccc(Oc4cc(F)c(CC(=O)Nc5cnn(C(C)(C)C)c5)cc4C)c3c2)o1 [Compound 481, N-(1-(tert-butyl)-1H-pyrazol-4-yl)-2-(2-fluoro-5-methyl-4-((6-(5-((methylamino)methyl)-1,3,4-oxadiazol-2-yl)quinolin-4-yl)oxy)phenyl)acetamide] | < 2.5 nM | 4.2 nM | 4.5 nM
5 | Cc1nnc(-c2ccc3nccc(Oc4cc(F)c(CC(=O)Nc5cnn(C(C)(C)C)c5)cc4C)c3c2)o1 [Compound 482, N-(1-(tert-butyl)-1H-pyrazol-4-yl)-2-(2-fluoro-5-methyl-4-((6-(5-methyl-1,3,4-oxadiazol-2-yl)quinolin-4-yl)oxy)phenyl)acetamide] | < 2.5 nM | 0.3 nM | 4.6 nM
6 | Cc1cc(CC(=O)Nc2cnn(C(C)(C)C)c2)ccc1Oc1ccnc2ccc(C(N)=O)cc12 [Compound 487, 4-(4-(2-((1-(tert-butyl)-1H-pyrazol-4-yl)amino)-2-oxoethyl)-2-methylphenoxy)quinoline-6-carboxamide] | < 2.5 nM | 0.3 nM | 47.5 nM
7 | CNC(=O)c1ccc2nccc(Oc3ccc(CC(=O)Nc4cnn(C(C)(C)C)c4)cc3C)c2c1 [Compound 488, 4-(4-(2-((1-(tert-butyl)-1H-pyrazol-4-yl)amino)-2-oxoethyl)-2-methylphenoxy)-N-methylquinoline-6-carboxamide] | < 2.5 nM | 0.2 nM | 3.4 nM
8 | Cc1cc(CC(=O)Nc2cnn(C(C)(C)C)c2)ccc1Oc1ccnc2cc(F)c(C(N)=O)cc12 [Compound 489, 4-(4-(2-((1-(tert-butyl)-1H-pyrazol-4-yl)amino)-2-oxoethyl)-2-methylphenoxy)-7-fluoroquinoline-6-carboxamide] | < 2.5 nM | 0.1 nM | 7.1 nM
9 | CNC(=O)c1cc2c(Oc3ccc(CC(=O)Nc4cnn(C(C)(C)C)c4)cc3C)ccnc2cc1F [Compound 490, 4-(4-(2-((1-(tert-butyl)-1H-pyrazol-4-yl)amino)-2-oxoethyl)-2-methylphenoxy)-7-fluoro-N-methylquinoline-6-carboxamide] | < 2.5 nM | 0.1 nM | 24.2 nM

Further lines, results first:

Row | IC50 [1] | IC50 [2] | IC50 [3] | SMILES
10 | < 2.5 nM | 0.4 nM | 20.5 nM | [2H]C([2H])([2H])NC(=O)c1cc2c(Oc3cc(F)c(CC(=O)Nc4cnn(C(C)(C)C)c4)cc3C)ccnc2cc1F [Compound 494, 4-(4-(2-((1-(tert-butyl)-1H-pyrazol-4-yl)amino)-2-oxoethyl)-5-fluoro-2-methylphenoxy)-7-fluoro-N-(methyl-d3)quinoline-6-carboxamide]
11 | < 2.5 nM | 0.5 nM | 70.8 nM | Cc1cc(CC(=O)Nc2cnn(C(C)(C)C)c2)ccc1Oc1ccnc2cc(C)c(S(C)(=O)=O)cc12 [Compound 495, N-(1-(tert-butyl)-1H-pyrazol-4-yl)-2-(3-methyl-4-((7-methyl-6-(methylsulfonyl)quinolin-4-yl)oxy)phenyl)acetamide]
12 | < 2.5 nM | 0.5 nM | 127 nM | Cc1cc(CC(=O)Nc2cnn(C(C)(C)C)c2)c(F)cc1Oc1ccnc2cc(C)c(S(C)(=O)=O)cc12 [Compound 496, N-(1-(tert-butyl)-1H-pyrazol-4-yl)-2-(2-fluoro-5-methyl-4-((7-methyl-6-(methylsulfonyl)quinolin-4-yl)oxy)phenyl)acetamide]
13 | < 2.5 nM | 0.6 nM | 10.8 nM | CC(C)(C)n1cc(NC(=O)Cc2cc(Cl)c(Oc3ccnc4ccc(C(N)=O)cc34)cc2F)cn1 [Compound 497, 4-(4-(2-((1-(tert-butyl)-1H-pyrazol-4-yl)amino)-2-oxoethyl)-2-chloro-5-fluorophenoxy)quinoline-6-carboxamide]
14 | < 2.5 nM | 0.4 nM | 13.7 nM | CNC(=O)c1ccc2nccc(Oc3cc(F)c(CC(=O)Nc4cnn(C(C)(C)C)c4)cc3Cl)c2c1 [Compound 498, 4-(4-(2-((1-(tert-butyl)-1H-pyrazol-4-yl)amino)-2-oxoethyl)-2-chloro-5-fluorophenoxy)-N-methylquinoline-6-carboxamide]
15 | < 2.5 nM | 1.1 nM | 21.9 nM | Cc1cc(CC(=O)Nc2cnn(C34CC(C3)C4)c2)ccc1Oc1ccnc2ccc(C(N)=O)cc12 [Compound 499, 4-(4-(2-((1-(bicyclo[1.1.1]pentan-1-yl)-1H-pyrazol-4-yl)amino)-2-oxoethyl)-2-methylphenoxy)quinoline-6-carboxamide]
16 | < 2.5 nM | 0.4 nM | 7.4 nM | CNC(=O)c1ccc2nccc(Oc3ccc(CC(=O)Nc4cnn(C56CC(C5)C6)c4)cc3C)c2c1 [Compound 500, 4-(4-(2-((1-(bicyclo[1.1.1]pentan-1-yl)-1H-pyrazol-4-yl)amino)-2-oxoethyl)-2-methylphenoxy)-N-methylquinoline-6-carboxamide]
17 | < 2.5 nM | 2.2 nM | 62.9 nM | Cc1cc(CC(=O)Nc2cnn(C34CC(C3)C4)c2)c(F)cc1Oc1ccnc2ccc(C(N)=O)cc12 [Compound 501, 4-(4-(2-((1-(bicyclo[1.1.1]pentan-1-yl)-1H-pyrazol-4-yl)amino)-2-oxoethyl)-5-fluoro-2-methylphenoxy)quinoline-6-carboxamide]
18 | < 2.5 nM | 0.8 nM | 17.5 nM | CNC(=O)c1ccc2nccc(Oc3cc(F)c(CC(=O)Nc4cnn(C56CC(C5)C6)c4)cc3C)c2c1 [Compound 502, 4-(4-(2-((1-(bicyclo[1.1.1]pentan-1-yl)-1H-pyrazol-4-yl)amino)-2-oxoethyl)-5-fluoro-2-methylphenoxy)-N-methylquinoline-6-carboxamide]
19 | < 2.5 nM | 0.2 nM | 63.1 nM | Cc1c(Oc2ccnc3ccc(C(N)=O)cc23)cc(F)c(CC(=O)Nc2cnn(C(C)(C)C)c2)c1F [Compound 503, 4-(4-(2-((1-(tert-butyl)-1H-pyrazol-4-yl)amino)-2-oxoethyl)-3,5-difluoro-2-methylphenoxy)quinoline-6-carboxamide]
20 | < 2.5 nM | 0.2 nM | 3.4 nM | CNC(=O)c1ccc2nccc(Oc3cc(F)c(CC(=O)Nc4cnn(C(C)(C)C)c4)c(F)c3C)c2c1 [Compound 504, 4-(4-(2-((1-(tert-butyl)-1H-pyrazol-4-yl)amino)-2-oxoethyl)-3,5-difluoro-2-methylphenoxy)-N-methylquinoline-6-carboxamide]
21 | < 2.5 nM | 3.5 nM | 128 nM | Cc1cc(CC(=O)Nc2cnn(C(C)(C)C)c2)cc(C)c1Oc1ccnc2ccc(C(N)=O)cc12 [Compound 505, 4-(4-(2-((1-(tert-butyl)-1H-pyrazol-4-yl)amino)-2-oxoethyl)-2,6-dimethylphenoxy)quinoline-6-carboxamide]
